Values quoted from earlier work, collected in patent US20240115492A1, “AN ORODISPERSIBLE PHARMACEUTICAL SOLID DOSAGE FORM OF RASAGILINE” (INTAS PHARMACEUTICALS LTD., priority 2021, published 2024).

In the case of `C#CCN(C)[C@H](C)Cc1ccccc1` [selegiline], the “Selegiline plasma exposure, ODT versus conventional tablets” value (10 mg orally disintegrated tablets vs conventional 10 mg tablets) is listed as “twelve-time higher” and the “selegiline absorbed through the mucous membrane of the mouth” value (ODT form (10 mg), within 1 minute) is listed as “about 30%”.
